Experimental data published in patent publication US10787443B2, “RAF-degrading conjugate compounds” (ZAMBONI CHEM SOLUTIONS INC., priority 2017, dated 2020).
Entries after “also recorded” stand apart in the source; their conditions may differ.

Columns and labels:
[1] = target: T1, CRAF (CRAF fusion protein with a fluorescent protein) in Calu-6 cells (Homo sapiens, UniProt P04049); test: Degradation assay, fluorescent CRAF fusion protein levels in Calu-6 cells (IncuCyte S3); format: cell-based; conditions: fluorescence/confluence
T1 construct: fluorescent protein (green); expressed in transfected cells; host or cells: Calu-6
Experimental: Calu-6 cells were stably transfected with a CRAF fusion protein with a fluorescent protein attached to the C-terminus of CRAF in order to monitor protein levels via fluorescence. Cells were seeded into a 96-well plate and allowed to adhere overnight. The next day cells are treated with compounds at the doses indicated in the table below and analyzed over time. Data was collected by monitoring Fluorescent CRAF protein levels an IncuCyte S3 Live Cell Analysis System (Essen BioScience). […] Calu6_CRAF fusion protein cells are imaged and analyzed using an Incucyte S3 live-cell analysis system (Essen Biosciences). Fluorescence signal is due to expression of the fluorescent protein covalently fused to the C-terminus of CRAF and degradation is assessed by measuring fluorescence/confluence (˜cell number) after treatment with compounds of the present disclosure. Phase contrast images are analyzed using Incucyte S3 software. Percent confluence is calculated using a phase contrast mask to quantify the area of the image occupied by the Calu6_CRAF fusion protein cells. Fluorescent images are analyzed using Incucyte S3 software. Green Corrected Units (GCU) is calculated using a fluorescence mask to quantify the area of the image occupied by green fluorescent signal and the intensity of the signal. […] As discussed above, degradation is measured as a function of fluorescence/confluence.

[2] = tested on: GST-Braf kinase domain and biotinylated E3 substrate adapter (VHL/EloB/EloC complex or CRBN318-425); test: Dimerization assay (AlphaScreen/AlphaLisa), RAF/E3 dimerization; format: binding; conditions: Table 17; relative value; compounds 4 fold serial dilutions from 20 μM
BRAF/VHL = BRAF/VHL (Homo sapiens, UniProt P15056+P40337); conditions: FIG. 12; various concentrations
BRAF/VHL, sequence (P15056 457-717 limits assumed): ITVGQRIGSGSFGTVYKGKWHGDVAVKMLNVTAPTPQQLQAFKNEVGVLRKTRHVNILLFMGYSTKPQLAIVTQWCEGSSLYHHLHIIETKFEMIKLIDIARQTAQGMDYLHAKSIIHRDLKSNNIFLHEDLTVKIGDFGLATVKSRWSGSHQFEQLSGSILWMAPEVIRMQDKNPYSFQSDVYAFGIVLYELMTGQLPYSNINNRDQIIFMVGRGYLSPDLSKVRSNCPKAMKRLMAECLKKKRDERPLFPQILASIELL
BRAF/VHL, sequence (P40337 54-213 limits assumed): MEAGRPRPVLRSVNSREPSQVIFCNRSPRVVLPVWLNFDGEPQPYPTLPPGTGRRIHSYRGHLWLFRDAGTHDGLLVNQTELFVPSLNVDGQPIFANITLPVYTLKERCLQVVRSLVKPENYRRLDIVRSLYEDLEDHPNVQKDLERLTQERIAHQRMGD
BRAF/VHL, sequence (Q15370 whole entry partner): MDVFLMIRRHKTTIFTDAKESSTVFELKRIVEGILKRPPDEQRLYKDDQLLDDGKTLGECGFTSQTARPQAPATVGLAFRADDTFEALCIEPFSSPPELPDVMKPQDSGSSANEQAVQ
BRAF/VHL, sequence (Q15369 17-112 partner limits assumed): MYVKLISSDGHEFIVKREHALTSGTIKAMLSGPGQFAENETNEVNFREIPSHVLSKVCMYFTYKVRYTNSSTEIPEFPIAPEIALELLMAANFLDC

T1 sequence (P04049 whole entry, the tested form may be a part): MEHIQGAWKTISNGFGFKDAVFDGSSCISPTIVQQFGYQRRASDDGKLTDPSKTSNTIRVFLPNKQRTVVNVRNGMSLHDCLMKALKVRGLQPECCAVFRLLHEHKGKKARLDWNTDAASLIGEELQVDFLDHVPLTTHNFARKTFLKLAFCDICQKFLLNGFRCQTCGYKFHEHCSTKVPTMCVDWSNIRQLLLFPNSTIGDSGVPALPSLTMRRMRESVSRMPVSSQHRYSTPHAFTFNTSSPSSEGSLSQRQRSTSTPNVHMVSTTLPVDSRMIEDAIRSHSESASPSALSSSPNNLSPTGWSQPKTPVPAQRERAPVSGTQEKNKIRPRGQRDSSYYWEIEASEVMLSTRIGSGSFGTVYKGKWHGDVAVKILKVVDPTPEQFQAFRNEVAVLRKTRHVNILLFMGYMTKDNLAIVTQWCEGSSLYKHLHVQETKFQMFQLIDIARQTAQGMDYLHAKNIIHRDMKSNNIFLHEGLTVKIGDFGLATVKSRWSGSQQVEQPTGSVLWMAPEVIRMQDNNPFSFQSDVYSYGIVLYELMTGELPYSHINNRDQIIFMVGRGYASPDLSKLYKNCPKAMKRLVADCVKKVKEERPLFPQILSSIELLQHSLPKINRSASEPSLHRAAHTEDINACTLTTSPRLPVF

Cc1ncc(NC(=O)c2cccc(C(F)(F)F)c2)cc1-c1cnc(OCCOCCOCCOCCOCC(=O)NCCCCCc2cccc3c2CN(C2CCC(=O)NC2=O)C3=O)c(N2CCOCC2)c1 (stereo not shown) [Compound 2.014, N-(5-(2-(2,6-dioxopiperidin-3-yl)-1-oxoisoindolin-4-yl)pentyl)-14-((2′-methyl-5-morpholino-5′-(3-(trifluoromethyl)benzamido)-[3,3′-bipyridin]-6-yl)oxy)-3,6,9,12-tetraoxatetradecan-1-amide]
CRAF degradation in Calu6 cells over time ([1]; 12.5 μM, FIG. 7): CRAF degradation | RAF/E3 Dimerization [2]: +++++ (RAF/E3 Dimerization ≥75%)

Cc1ncc(NC(=O)c2cccc(C(F)(F)F)c2)cc1-c1cnc(OCCOCCOCCOCC(=O)NCCOCCCc2cccc3c2C(=O)N(C2CCC(=O)NC2=O)C3=O)c(N2CCOCC2)c1 (stereo not shown) [Compound 2.021, N-(6′-((18-(2-(2,6-dioxopiperidin-3-yl)-1,3-dioxoisoindolin-4-yl)-11-oxo-3,6,9,15-tetraoxa-12-azaoctadecyl)oxy)-2-methyl-5′-morpholino-[3,3′-bipyridin]-5-yl)-3-(trifluoromethyl)-benzamide]
CRAF degradation in Calu6 cells over time ([1]; 15 μM, FIG. 6): CRAF degradation | RAF/E3 Dimerization [2]: ++ (25% > RAF/E3 Dimerization ≥ 5%)

Cc1ncc(NC(=O)c2cccc(C(F)(F)F)c2)cc1-c1cnc(OC2CCOCC2)c(N2CCOCC2)c1 [RAF709, reference compound]
BRAF/VHL dimerization (BRAF/VHL): does not cause dimerization

Cc1ncc(NC(=O)c2cccc(C(F)(F)F)c2)cc1-c1cnc(OCCOCCOCC(=O)NCCCCCCc2cccc3c2CN(C2CCC(=O)NC2=O)C3=O)c(N2CCOCC2)c1 (stereo not shown) [Compound 2.015, N-(6′-(2-(2-(2-((6-(2-(2,6-dioxopiperidin-3-yl)-1-oxoisoindolin-4-yl)hexyl)amino)-2-oxoethoxy)ethoxy)ethoxy)-2-methyl-5′-morpholino-[3,3′-bipyridin]-5-yl)-3-(trifluoromethyl)benzamide]
CRAF degradation in Calu6 cells over time ([1]; 2 μM, FIG. 10): CRAF degradation | RAF/E3 Dimerization [2]: +++ (50% > RAF/E3 Dimerization ≥ 25)

Cc1ncc(NC(=O)c2cccc(C(F)(F)F)c2)cc1-c1cnc(O[C@H]2CCO[C@@H](COCc3cn(CCCCCC(=O)N[C@@H](C(=O)N4C[C@H](O)C[C@H]4C(=O)N[C@@H](C)c4ccc(-c5scnc5C)cc4)C(C)(C)C)nn3)C2)c(N2CCOCC2)c1 (relative stereo) [Compound 2.004, (2S,4R)-1-((R)-3,3-dimethyl-2-(6-(4-((((2R*,4S*)-4-((2′-methyl-5-morpholino-5′-(3-(trifluoromethyl)benzamido)-[3,3′-bipyridin]-6-yl)oxy)tetrahydro-2H-pyran-2-yl)methoxy)methyl)-1H-1,2,3-triazol-1-yl)hexanamido)butanoyl)-4-hydroxy-N—((S)-1-(4-(4-methylthiazol-5-yl)phenyl)ethyl)pyrrolidine-2-carboxamide]
CRAF degradation in Calu6 cells over time ([1]; 1.5 μM, FIG. 3): CRAF degradation | RAF/E3 Dimerization [2]: +++ (50% > RAF/E3 Dimerization ≥ 25)

Cc1ncc(NC(=O)c2cccc(C(F)(F)F)c2)cc1-c1cnc(OCCOCCOCCOCc2cn(CCCCCC(=O)N[C@@H](C(=O)N3C[C@@H](O)C[C@@H]3C(=O)N[C@@H](C)c3ccc(-c4scnc4C)cc3)C(C)(C)C)nn2)c(N2CCOCC2)c1 [Compound 2.010, (2R,4S)-1-((R)-3,3-dimethyl-2-(6-(4-((2-(2-(2-((2′-methyl-5-morpholino-5′-(3-(trifluoromethyl)benzamido)-[3,3′-bipyridin]-6-yl)oxy)ethoxy)ethoxy)ethoxy)methyl)-1H-1,2,3-triazol-1-yl)hexanamido)butanoyl)-4-hydroxy-N—((S)-1-(4-(4-methylthiazol-5-yl)phenyl)ethyl)pyrrolidine-2-carboxamide]
CRAF degradation in Calu6 cells over time ([1]; 1.67 μM, FIG. 13, FIG. 14): no CRAF degradation; also recorded: does not significantly reduce the relative amount of CRAF

Cc1ccc(NC(=O)c2cccc(C(F)(F)F)c2)cc1-c1cnc(OCCc2cn(CCCCCC(=O)Nc3cccc4c3C(=O)N(C3CCC(=O)NC3=O)C4=O)nn2)c(N2CCOCC2)c1 (stereo not shown) [Compound 1.009, N-(3-(6-(2-(1-(6-((2-(2,6-dioxopiperidin-3-yl)-1,3-dioxoisoindolin-4-yl)amino)-6-oxohexyl)-1H-1,2,3-triazol-4-yl)ethoxy)-5-morpholinopyridin-3-yl)-4-methylphenyl)-3-(trifluoromethyl)benzamide]
CRAF degradation in Calu6 cells over time ([1]; 3 μM, FIG. 4, 8, 9): CRAF degradation | RAF/E3 Dimerization [2]: + (5% > RAF/E3 Dimerization)

Cc1ccc(NC(=O)c2cccc(C(F)(F)F)c2)cc1-c1cnc(OCCOCc2cn(CCCCCC(=O)Nc3cccc4c3C(=O)N(C3CCC(=O)NC3=O)C4=O)nn2)c(N2CCOCC2)c1 (stereo not shown) [Compound 2.012, N-(3-(6-(2-((1-(6-((2-(2,6-dioxopiperidin-3-yl)-1,3-dioxoisoindolin-4-yl)amino)-6-oxohexyl)-1H-1,2,3-triazol-4-yl)methoxy)ethoxy)-5-morpholinopyridin-3-yl)-4-methylphenyl)-3-(trifluoromethyl)benzamide]
CRAF degradation in Calu6 cells over time ([1]; 3 μM, FIG. 4, 8, 9): CRAF degradation | RAF/E3 Dimerization [2]: +++ (50% > RAF/E3 Dimerization ≥ 25)

Cc1ncc(NC(=O)c2cccc(C(F)(F)F)c2)cc1-c1cnc(OCCOCCOCCOCCOCCOCC(=O)N[C@@H](C(=O)N2C[C@H](O)C[C@H]2C(=O)N[C@@H](C)c2ccc(-c3scnc3C)cc2)C(C)(C)C)c(N2CCOCC2)c1 [Compound 2.001, (2S,4R)-1-((R)-2-(tert-butyl)-20-((2′-methyl-5-morpholino-5′-(3-(trifluoromethyl)-benzamido)-[3,3′-bipyridin]-6-yl)oxy)-4-oxo-6,9,12,15,18-pentaoxa-3-azaicosan-1-oyl)-4-hydroxy-N—((S)-1-(4-(4-methylthiazol-5-yl)phenyl)ethyl)pyrrolidine-2-carboxamide]
CRAF degradation in Calu6 cells over time ([1]; 3 μM, FIG. 4, 8, 9): CRAF degradation | RAF/E3 Dimerization [2]: +++++ (RAF/E3 Dimerization ≥75%)

Cc1ncc(NC(=O)c2cccc(C(F)(F)F)c2)cc1-c1cnc(OCCOCCOCCOCCOCC(=O)NCCOCCCc2cccc3c2CN(C2CCC(=O)NC2=O)C3=O)c(N2CCOCC2)c1 (stereo not shown) [Compound 2.016, N-(2-(3-(2-(2,6-dioxopiperidin-3-yl)-1-oxoisoindolin-4-yl)propoxy)ethyl)-14-((2′-methyl-5-morpholino-5′-(3-(trifluoromethyl)benzamido)-[3,3′-bipyridin]-6-yl)oxy)-3,6,9,12-tetraoxatetradecan-1-amide]
CRAF degradation in Calu6 cells over time ([1]; 5 μM, FIG. 11): CRAF degradation | RAF/E3 Dimerization [2]: +++++ (RAF/E3 Dimerization ≥75%)

CNc1ncc2cc(-c3cc(NC(=O)NCCOCCOCCOCCOCCOCC(=O)N[C@@H](C(=O)N4C[C@H](O)C[C@H]4C(=O)N[C@@H](C)c4ccc(-c5scnc5C)cc4)C(C)(C)C)c(F)cc3C)c(C)nc2n1 [Compound 2.040, (2S,4R)-1-((R)-21-(tert-butyl)-1-((2-fluoro-4-methyl-5-(7-methyl-2-(methylamino)pyrido[2,3-d]pyrimidin-6-yl)phenyl)amino)-1,19-dioxo-5,8,11,14,17-pentaoxa-2,20-diazadocosan-22-oyl)-4-hydroxy-N—((S)-1-(4-(4-methylthiazol-5-yl)phenyl)ethyl)pyrrolidine-2-carboxamide]
RAF/E3 Dimerization [2]: + (5% > RAF/E3 Dimerization)
